We go through 17 molecules from patent US20180105492A1, “COMPOUNDS DERIVED FROM 3-ALKYLAMINE-1H-INDOLYL ACRYLATE AND THEIR USE IN THE TREATMENT OF NEURODEGENERATIVE DISEASES” (FUNDACION PARA LA INVESTIGACION BIOMEDICA DEL HOSPITAL …, priority 2014, published 2018).

SMILES strings stand for the structures.

Series [1] can be described thus: Oxygen radical absorbance capacity (ORAC), free radical scavenger capacity. Particulars: fluorescein/AAPH, pH 7.4, trolox = 1. The method, then:
In order to study the potential antioxidant effect of the compounds of the invention, we performed an oxygen radical absorbance capacity (ORAC) experiment.
For studying the free radical scavenger capacity, we measured the degree peroxide radical inhibition. Thus, scavenger capacity is measured as trolox equivalents and includes the disappearance of free radicals over time and the decrease of oxidative damage at the end of the experiment. The protocol used is based in the protocol developed by Ou and col. (Ou y col., 2001, J Agric Food Chem, 49: 4619-26) partially modified by Dávalos and col. (Davalos y col., 2004, J Agric Food Chem, 52: 48-54). The reaction was performed in phosphate tampon 75 mM (pH 7.4), with a final volume of 200 μL. 150 μL of fluorescein (final concentration of 70 nM) with 25 μL the compound of study at the desired concentration in triplicates, using surface transparent 96 well black plates for measuring fluorescence.
The mixture was pre-incubated during 15 min at 37° C. and, afterwards, 25 μL of a solution containing 2,2′-Azobis(2-amidinopropane) dihydrochloride (AAPH) (final concentration; 12 mM) were rapidly added. Fluorescence was immediately measured using a plate reader fluostar optima, using the filters of emission and excitation of […], respectively. Fluorescence intensity was measured during 90 min. Each compound was measured at 6 different concentrations. In the assay, fluorescein+AAPH in phosphate tampon was added as a blank and a calibration curve was performed using Trolox (1-8 μM). Every variable was prepared in duplicates and at least three independent experiments were performed for each compound. The curves of the compounds (F.I.—time) were normalized respect to the curve of the blank for each experiment and area under the curve (AUC) of the decreasing in fluorescence was calculated. AUC value of each compound was calculated subtracting the AUC of the blank. Regression curves between AUC and concentration of the compound were calculated for each of the samples. ORAC values were expressed as trolox equivalents with respect to the calibration curve of each assay, where the trolox value was considered 1.

The test system of a further series is SH-SY5Y cells. In words: Toxicity in SH-SY5Y neuronal cell line, reduction of cell viability (MTT). Format: cell-based. The method, then: In order to assess cellular viability, we measured the metabolic reduction of 3-(4,5-Dimethylthiazol-2-yl)-2,5 diphenyltetrazolium bromide (MTT). MTT is an indirect assay to measure cellular viability. It is a colorimetric method based on the reduction of 3-(4,5-Dimethylthiazol-2-yl)-2,5 diphenyltetrazolium. This process is performed by the mitochondrial enzyme succinate-dehydrogenase present in metabolic active cells. Thus, the water-soluble yellow MTT (tetrazolium salt) is transformed into a insoluble purple compound (formazan). Quantity of living cells is directly proportional to the quantity of formazan (Mosmann, 1983, J Immunol Methods, 65: 55-63). […] Therefore, with this assay we can measure cellular surviving and proliferation and also, we can determine the cytotoxicity of potential neuroprotective compounds. In order to assess cellular viability in SH-SY5Y cell line, we added 30 μl/well of MTT (5 mg/mL) and after 2 h, medium was carefully removed to avoid losing the formazan and was diluted in 300 μL of DMSO. Afterwards, samples were transferred to a 96 well-plate and the absorbance was measured at 570 nm using a absorbance/fluorescence reader FluoStar optima®. Every MTT assay was performed in triplicates. Absorbance values obtained with the toxic alone were subtracted to the absorbance values obtained in basal conditions (without treatment). That result was considered as the 100% of cell death and the values obtained with the compounds in the presence of the toxic stimulus were normalized as percentages of that value. For determining the surviving percentage, those percentages of cell death were subtracted to 100. […]
In order to further study its safety profile, the effect of the derivatives on neuronal cells used for neuroprotection experiments, the SH-SY5Y human neuroblastoma cells, was also evaluated. Maintenance and culture methods of this cell line have been described above. For toxicity experiments, SH-SY5Y cells were plated in 96-well plates at the density of 6×10 ^4 cells/well. The experimental conditions were the same as those described for the toxicity study in HepG2 cells.
The results obtained are shown in Table 6 expressed as the lethal dose 50 (LD50), or needed concentration to reduce to 50% the viability of basal conditions (without treatment), measured by the MTT reduction method.

[2] abbreviates: 24 h incubation, MTT, concentration reducing viability to 50% of basal.

`C/C=C/C(=O)Oc1ccc2[nH]cc(CCNC(C)=O)c2c1` [Compound 1, 3-(2-acetamidoethyl)-1H-indol-5-yl (E)-2-butenoate]: in series [1], the “ORAC (Trolox eq.)” value came out at 8.64 ± 1.98 Trolox eq. Moreover, in the series on SH-SY5Y cells (setting [2]), the “SH-SY5Y LD50” value is >100 µM.

In the case of `CC(=O)NCCc1c[nH]c2ccc(OC(=O)/C=C/c3ccccc3)cc12` [Compound 2, 3-(2-acetamidoethyl)-1H-indol-5-yl cinnamate], the “ORAC (Trolox eq.)” value in series [1] was 4.30 ± 0.50 Trolox eq. Moreover, the “SH-SY5Y LD50” value with SH-SY5Y cells (setting [2]) was >100 µM.

As to `CC(=O)NCCc1c[nH]c2ccc(OC(=O)/C=C/c3ccc(C)cc3)cc12` [Compound 3, 3-(2-acetamidoethyl)-1H-indol-5-yl (E)-3-(4-methylphenyl)acrylate], the “ORAC (Trolox eq.)” value in series [1] is 4.44 ± 0.51 Trolox eq. Also, the “SH-SY5Y LD50” value with SH-SY5Y cells (setting [2]) turned out to be 80 µM.

In the case of `COc1ccccc1/C=C/C(=O)Oc1ccc2[nH]cc(CCNC(C)=O)c2c1` [Compound 4, 3-(2-acetamidoethyl)-1H-indol-5-yl (E)-3-(2-methoxyphenyl)acrylate], the “ORAC (Trolox eq.)” value in series [1] came to 3.02 ± 0.20 Trolox eq. In addition, the “SH-SY5Y LD50” value in the series on SH-SY5Y cells (setting [2]) was 64 µM.

Regarding `COc1cccc(/C=C/C(=O)Oc2ccc3[nH]cc(CCNC(C)=O)c3c2)c1` [Compound 5, 3-(2-acetamidoethyl)-1H-indol-5-yl (E)-3-(3-methoxyphenyl)acrylate], the “ORAC (Trolox eq.)” value in series [1] is 3.52 ± 0.27 Trolox eq. Further, the “SH-SY5Y LD50” value in the series with SH-SY5Y cells (setting [2]) turned out to be 83 µM.

On to `COc1ccc(/C=C/C(=O)Oc2ccc3[nH]cc(CCNC(C)=O)c3c2)cc1` [Compound 6, 3-(2-acetamidoethyl)-1H-indol-5-yl (E)-3-(4-methoxyphenyl)acrylate], for which the “ORAC (Trolox eq.)” value in series [1] came out at 3.51 ± 0.27 Trolox eq. Further, the “SH-SY5Y LD50” value in the series with SH-SY5Y cells (setting [2]) turned out to be 60 µM.

`CC(=O)NCCc1c[nH]c2ccc(OC(=O)/C=C/c3ccc(O)cc3)cc12` [Compound 7, 3-(2-acetamidoethyl)-1H-indol-5-yl (E)-3-(4-hydroxyphenyl)acrylate]: in series [1], the “ORAC (Trolox eq.)” value was 9.21 ± 0.81 Trolox eq. The “SH-SY5Y LD50” value in the series with SH-SY5Y cells (setting [2]) is >100 µM.

As for `COc1cc(/C=C/C(=O)Oc2ccc3[nH]cc(CCNC(C)=O)c3c2)ccc1O` [Compound 8, 3-(2-acetamidoethyl)-1H-indol-5-yl (E)-3-(4-hydroxy-3-methoxyphenyl)acrylate], the “ORAC (Trolox eq.)” value in series [1] is listed as 8.04 ± 0.66 Trolox eq. For the same molecule, in the series on SH-SY5Y cells (setting [2]), the “SH-SY5Y LD50” value is >100 µM.

Regarding `CC(=O)NCCc1c[nH]c2ccc(OC(=O)/C=C/c3ccc(F)cc3)cc12` [Compound 9, 3-(2-acetamidoethyl)-1H-indol-5-yl (E)-3-(4-fluorophenyl)acrylate], the “ORAC (Trolox eq.)” value in series [1] is listed as 3.44 ± 0.67 Trolox eq. The “SH-SY5Y LD50” value in the series with SH-SY5Y cells (setting [2]) is >100 µM.

Take `CC(=O)NCCc1c[nH]c2ccc(OC(=O)/C=C/c3ccc(Br)cc3)cc12` [Compound 10, 3-(2-acetamidoethyl)-1H-indol-5-yl (E)-3-(4-bromophenyl)acrylate]: in series [1], the “ORAC (Trolox eq.)” value is recorded as 2.53 ± 0.18 Trolox eq. Moreover, the “SH-SY5Y LD50” value with SH-SY5Y cells (setting [2]) came to 60 µM.

On to `CC(=O)NCCc1c[nH]c2ccc(OC(=O)/C=C/c3ccc(Cl)cc3)cc12` [Compound 11, 3-(2-acetamidoethyl)-1H-indol-5-yl (E)-3-(4-chlorophenyl)acrylate], for which the “ORAC (Trolox eq.)” value in series [1] worked out at 2.91 ± 0.32 Trolox eq. Further, the “SH-SY5Y LD50” value in the series with SH-SY5Y cells (setting [2]) is >100 µM.

As to `CC(=O)NCCc1c[nH]c2ccc(OC(=O)/C=C/c3ccc(Cl)c(Cl)c3)cc12` [Compound 12, 3-(2-acetamidoethyl)-1H-indol-5-yl (E)-3-(3,4-dichlorophenyl)acrylate], in series [1], the “ORAC (Trolox eq.)” value amounted to 5.37 ± 0.38 Trolox eq. Further, the “SH-SY5Y LD50” value in the series with SH-SY5Y cells (setting [2]) worked out at 51 µM.

Take `CC(=O)NCCc1c[nH]c2ccc(OC(=O)/C=C/c3ccccc3C(F)(F)F)cc12` [Compound 13, 3-(2-acetamidoethyl)-1H-indol-5-yl (E)-3-(2-(trifluoromethyl)phenyl)acrylate]: the “ORAC (Trolox eq.)” value in series [1] worked out at 3.33 ± 0.28 Trolox eq. Also, the “SH-SY5Y LD50” value in the series on SH-SY5Y cells (setting [2]) was >100 µM.

Turning to `CC(=O)NCCc1c[nH]c2ccc(OC(=O)/C=C/c3cccc(C(F)(F)F)c3)cc12` [Compound 14, 3-(2-acetamidoethyl)-1H-indol-5-yl (E)-3-(3-(trifluoromethyl)phenyl)acrylate], the “ORAC (Trolox eq.)” value in series [1] is given as 4.13 ± 0.39 Trolox eq. Besides, the “SH-SY5Y LD50” value in the series on SH-SY5Y cells (setting [2]) is >100 µM.

With `CC(=O)NCCc1c[nH]c2ccc(OC(=O)/C=C/c3ccc(C(F)(F)F)cc3)cc12` [Compound 15, 3-(2-acetamidoethyl)-1H-indol-5-yl (E)-3-(4-(trifluoromethyl)phenyl)acrylate], the “ORAC (Trolox eq.)” value in series [1] is given as 3.97 ± 0.38 Trolox eq. The “SH-SY5Y LD50” value in the series on SH-SY5Y cells (setting [2]) is 70 µM.

For the molecule `CC(=O)NCCc1c[nH]c2ccc(OC(=O)/C=C/c3ccc([N+](=O)[O-])cc3)cc12` [Compound 16, 3-(2-acetamidoethyl)-1H-indol-5-yl (E)-3-(4-nitrophenyl)acrylate], the “ORAC (Trolox eq.)” value in series [1] is 4.12 ± 0.49 Trolox eq. Also, the “SH-SY5Y LD50” value with SH-SY5Y cells (setting [2]) is >100 µM.

With `COc1ccc2[nH]cc(CCNC(C)=O)c2c1` [Melatonin, reference compound], the “SH-SY5Y LD50” value in the series with SH-SY5Y cells (human, 24 h) is >100 µM.
